Results: the supplement of paper PMC10307832

Legend:
Test in all cases: relative viability (nuclei count vs DMSO), 5 days (fraction); higher = more cells survive
Afatinib + Decitabine = compound: CN(C)C/C=C/C(=O)Nc1cc2c(Nc3ccc(F)c(Cl)c3)ncnc2cc1O[C@H]1CCOC1 [Afatinib] + Nc1ncn([C@H]2C[C@H](O)[C@@H](CO)O2)c(=O)n1 [Decitabine] (partner 2 µM)
How it was run: (§1)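 A single step with final 0.05% Triton X-100, 1% formaldehyde and 1 ug/ml Hoechst fixed the cells and stained nuclei 5 days after treatment. Lung cancer cell lines in 1536-well plates had been treated by pin tool the day after seeding with one drug alone or a fixed anchor-drug dose plus five library-drug doses (not always all listed) in √10 steps, and nuclei were counted on 4× images. Relative viability is the ratio of nuclei in treated wells to nuclei in vehicle wells, taken as the median of duplicate plates.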

Afatinib + Lapatinib = compound: CN(C)C/C=C/C(=O)Nc1cc2c(Nc3ccc(F)c(Cl)c3)ncnc2cc1O[C@H]1CCOC1 [Afatinib] + CS(=O)(=O)CCNCc1ccc(-c2ccc3ncnc(Nc4ccc(OCc5cccc(F)c5)c(Cl)c4)c3c2)o1 [Lapatinib] (partner 2 µM)
How it was run: as §1

Afatinib + Tozasertib = compound: CN(C)C/C=C/C(=O)Nc1cc2c(Nc3ccc(F)c(Cl)c3)ncnc2cc1O[C@H]1CCOC1 [Afatinib] + Cc1cc(Nc2cc(N3CCN(C)CC3)nc(Sc3ccc(NC(=O)C4CC4)cc3)n2)n[nH]1 [Tozasertib] (partner 0.1 µM)
How it was run: as §1

Afatinib + Crizotinib = compound: CN(C)C/C=C/C(=O)Nc1cc2c(Nc3ccc(F)c(Cl)c3)ncnc2cc1O[C@H]1CCOC1 [Afatinib] + C[C@@H](Oc1cc(-c2cnn(C3CCNCC3)c2)cnc1N)c1c(Cl)ccc(F)c1Cl [Crizotinib] (partner 1 µM)
How it was run: as §1

Cell Line	relative viability (Afatinib + Decitabine; first compound 0.005 µM)	relative viability (Afatinib + Decitabine; first compound 0.01581 µM)	relative viability (Afatinib + Decitabine; first compound 0.05 µM)	relative viability (Afatinib + Decitabine; first compound 0.1581 µM)	relative viability (Afatinib + Decitabine; first compound 0.5 µM)	relative viability (Afatinib + Lapatinib; first compound 0.005 µM)	relative viability (Afatinib + Lapatinib; first compound 0.01581 µM)	relative viability (Afatinib + Lapatinib; first compound 0.05 µM)	relative viability (Afatinib + Lapatinib; first compound 0.1581 µM)	relative viability (Afatinib + Lapatinib; first compound 0.5 µM)	relative viability (Afatinib + Tozasertib; first compound 0.005 µM)	relative viability (Afatinib + Tozasertib; first compound 0.01581 µM)	relative viability (Afatinib + Tozasertib; first compound 0.05 µM)	relative viability (Afatinib + Tozasertib; first compound 0.1581 µM)	relative viability (Afatinib + Tozasertib; first compound 0.5 µM)	relative viability (Afatinib + Crizotinib; first compound 0.005 µM)	relative viability (Afatinib + Crizotinib; first compound 0.01581 µM)	relative viability (Afatinib + Crizotinib; first compound 0.05 µM)	relative viability (Afatinib + Crizotinib; first compound 0.1581 µM)	relative viability (Afatinib + Crizotinib; first compound 0.5 µM)
LXF-289	0.371	0.356	0.366	0.351	0.365	0.937	0.91	0.95	0.903	0.917	0.146	0.146	0.2	0.152	0.214	0.845	0.777	0.793	0.7	0.811
NCI-H23	0.327	0.314	0.278	0.317	0.309	1.34	1.23	1.08	1.04	1.01	0.356	0.366	0.321	0.391	0.315	0.516	0.459	0.612	0.44	0.639
NCI-H322M	0.637	0.509	0.55	0.502	0.479	0.554	0.547	0.499	0.57	0.465	0.386	0.329	0.307	0.304	0.313	0.775	0.676	0.544	0.359	0.293
NCI-H358	0.191	0.18	0.149	0.163	0.136	0.502	0.356	0.408	0.436	0.432	0.0992	0.111	0.0922	0.0887	0.076	0.541	0.423	0.387	0.241	0.256
NCI-H460	0.446	0.464	0.521	0.526	0.551	0.973	0.932	1.04	1.02	0.842	0.487	0.511	0.407	0.269	0.395	0.878	0.748	0.885	0.809	0.875
NCI-H520	0.539	0.454	0.45	0.483	0.413	0.857	0.78	0.918	0.903	0.687	0.435	0.355	0.462	0.342	0.422	1.33	0.851	0.832	0.749	0.737
NCI-H596	1.02	0.962	1.08	1.1	1.01	1.09	1.08	1.09	1.02	1.02	0.848	0.881	0.92	0.777	0.772	0.987	0.866	0.94	0.904	0.921
NCI-H647	0.459	0.499	0.425	0.315	0.419	1.09	0.948	1.16	1.24	1.2	0.251	0.263	0.417	0.211	0.276	1.26	1.13	1.01	1.04	1.19
NCI-H650	0.321	0.323	0.334	0.334	0.308	1.01	0.844	1.19	1.21	0.684	0.846	0.735	0.782	0.721	0.683	0.856	0.674	0.72	1.01	0.683
NCI-H661	0.502	0.428	0.44	0.391	0.401	0.682	0.469	0.573	0.454	0.443	0.34	0.367	0.367	0.361	0.377	1.25	1.03	0.996	0.838	0.773
NCI-H727	0.826	0.534	0.831	0.761	0.829	0.892	0.861	0.894	0.639	0.948	0.597	0.614	0.543	0.514	0.449	0.804	0.802	0.53	0.541	0.583
NCI-H838	0.496	0.445	0.481	0.451	0.461	0.986	0.953	1.07	1.08	1.06	0.29	0.264	0.282	0.222	0.276	0.782	0.87	0.901	0.791	0.937
NCI-H1355	0.377	0.332	0.341	0.356	0.332	1.03	1.08	1	0.945	1.03	0.577	0.517	0.522	0.501	0.464	1.16	0.983	1.01	0.792	0.816
NCI-H1437	0.597	0.552	0.542	0.535	0.552	0.891	0.79	0.758	0.778	0.779	0.416	0.43	0.41	0.397	0.412	0.985	1.01	0.988	0.881	0.966
NCI-H1650	0.383	0.403	0.426	0.503	0.368	0.903	–	1.09	0.772	0.598	0.409	–	0.408	0.313	0.343	0.907	–	0.8	0.612	0.796
NCI-H1651	0.558	0.57	0.6	0.576	0.585	0.925	0.841	0.763	0.834	0.803	0.718	0.748	0.727	0.591	0.609	0.911	0.85	0.817	0.855	0.82

Cell Line	relative viability (Afatinib + Decitabine; first compound 0.005 µM)	relative viability (Afatinib + Decitabine; first compound 0.01581 µM)	relative viability (Afatinib + Decitabine; first compound 0.05 µM)	relative viability (Afatinib + Decitabine; first compound 0.1581 µM)	relative viability (Afatinib + Decitabine; first compound 0.5 µM)	relative viability (Afatinib + Lapatinib; first compound 0.005 µM)	relative viability (Afatinib + Lapatinib; first compound 0.01581 µM)	relative viability (Afatinib + Lapatinib; first compound 0.05 µM)	relative viability (Afatinib + Lapatinib; first compound 0.1581 µM)	relative viability (Afatinib + Lapatinib; first compound 0.5 µM)	relative viability (Afatinib + Tozasertib; first compound 0.005 µM)	relative viability (Afatinib + Tozasertib; first compound 0.01581 µM)	relative viability (Afatinib + Tozasertib; first compound 0.05 µM)	relative viability (Afatinib + Tozasertib; first compound 0.1581 µM)	relative viability (Afatinib + Tozasertib; first compound 0.5 µM)	relative viability (Afatinib + Crizotinib; first compound 0.005 µM)	relative viability (Afatinib + Crizotinib; first compound 0.01581 µM)	relative viability (Afatinib + Crizotinib; first compound 0.05 µM)	relative viability (Afatinib + Crizotinib; first compound 0.1581 µM)	relative viability (Afatinib + Crizotinib; first compound 0.5 µM)
NCI-H1666	0.702	0.67	0.642	0.562	0.657	0.592	0.621	0.618	–	0.834	0.673	0.621	0.596	0.519	0.551	0.879	0.885	0.661	–	0.676
NCI-H1734	0.542	0.538	0.47	0.491	0.489	1.06	1.01	1.06	1.01	1.09	0.253	0.255	0.269	0.289	0.26	0.82	0.687	0.652	0.568	0.642
NCI-H1755	0.725	0.693	0.728	0.695	0.661	1.11	1.03	1.09	1.04	1.07	0.522	0.499	0.59	0.554	0.566	0.894	0.869	0.848	0.852	0.868
NCI-H1915	0.269	0.268	0.272	0.268	0.269	1.02	0.944	0.994	0.959	0.876	0.522	0.46	0.414	0.427	0.419	1	0.963	0.872	0.957	0.894
NCI-H1944	0.423	0.403	0.419	0.343	0.344	0.884	0.795	0.691	0.799	0.858	0.234	0.247	0.216	0.195	0.208	1.08	0.989	0.883	0.596	0.709
NCI-H1975	0.395	0.283	0.391	0.264	0.373	0.895	0.685	0.529	0.283	0.239	0.7	0.702	0.641	0.268	0.218	1.14	1.07	1.01	0.45	0.307
NCI-H1993	0.552	0.51	0.546	0.509	0.578	0.835	0.848	1.11	1.01	0.848	0.556	0.582	0.601	0.617	0.549	0.647	0.732	0.656	0.76	0.771
NCI-H2009	0.398	0.383	0.357	0.366	0.358	0.964	0.934	1.07	0.995	1.01	0.856	0.785	0.789	0.713	0.732	1.07	0.977	1.12	1.04	1.04
NCI-H2023	0.234	0.197	0.211	0.2	0.234	0.744	0.853	0.896	0.809	0.964	0.422	0.377	0.366	0.169	0.248	0.576	0.487	0.407	0.402	0.487
NCI-H2085	0.577	0.522	0.519	0.517	0.515	0.857	0.762	0.851	0.743	0.76	0.795	0.754	0.721	0.619	0.619	0.925	0.657	0.763	0.66	0.778
NCI-H2087	0.336	0.227	0.262	0.209	0.25	0.973	1.07	1.09	0.946	0.929	0.232	0.25	0.267	0.229	0.202	0.985	0.933	0.93	0.845	1.02
NCI-H2126	0.565	0.519	0.595	0.502	0.425	0.779	0.688	0.686	0.761	0.799	0.852	0.813	0.668	0.571	0.632	1.09	0.989	1.02	0.884	0.79
NCI-H2170	0.459	0.469	0.405	0.176	0.2	0.297	0.283	0.268	0.269	0.315	0.651	0.574	0.355	0.221	0.203	1.07	0.822	0.534	0.25	0.286
NCI-H2347	0.602	0.654	0.626	0.592	0.592	0.934	0.985	0.832	0.987	0.996	0.509	0.593	0.596	0.484	0.603	0.828	0.937	0.657	0.607	0.724
NCI-H2405	0.716	0.764	0.703	0.642	0.656	1.11	1.09	1.33	1.04	1.07	0.779	0.741	0.741	0.646	0.824	0.753	0.86	0.835	0.811	0.819
NCI-H3122	0.38	0.439	0.424	0.433	0.418	1.03	1.02	1.05	0.992	1.04	0.452	0.504	0.394	0.327	0.459	0.257	0.212	0.208	0.209	0.299
